According to US20240415819A1, “MACROCYCLIC COMPOUNDS AS PROTEASOME SUBUNIT BETA TYPE-5 INHIBITORS” (Lead Discovery Center GmbH, priority 2021, published 2024):

What was measured:
[1] = molecular target: T1, β5 subunit of the human immunoproteasome (IPS) (Homo sapiens, UniProt P28062); test: β5 inhibition assay, human immunoproteasome (Suc-LLVY-AMC); assay type: biochemical; conditions: IC50 class, Suc-LLVY-AMC substrate
T1 construct: purchased Boston Biochem E-370
Method in brief: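 Human immunoproteasome (1 nM final) was preincubated 10 min at RT with compound in 100 mM HEPES pH 7.5, 50 mM NaCl, 0.02% SDS, 1 mM DTT. Suc-LLVY-AMC (22.6 μM final) was then added for 4 h at RT in the dark. After stopping with 1 μM bortezomib, AMC fluorescence was read (ex 355/em 460 nm).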

HT-29 cells = test: CellTiter-Glo luminescent cell viability assay with HT-29 cells (72h incubation); assay type: cell-based, human; conditions: Homo sapiens, HT-29, HT29 cells, read-out: CTG HT29
Method in brief: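 400 cells per well in DMEM/10% FCS were dosed after 24 h and kept 72 h at 37 °C, 5% CO2. ATP-based luminescence (CellTiter-Glo) normalized to DMSO and 10 μM staurosporine controls; IC50 by dose-response fit.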

[2] = molecular target: T2, β5 subunit of the human constitutive proteasome (CPS) (Homo sapiens, UniProt P28074); test: β5 inhibition assay, human constitutive proteasome (Suc-LLVY-AMC); assay type: biochemical; conditions: IC50 class, Suc-LLVY-AMC substrate
T2 construct: purchased Boston Biochem E-360
Method: The enzymatic activity of the β5 subunit of the human constitutive proteasome (CPS) is analyzed. In another assay, which differs from the assay of the human constitutive proteasome only in using the human immunoproteasome (IPS) the enzymatic activity of the β5 subunit of the human immunoproteasome (IPS) is analyzed. […] Inhibition is indicated as IC50 [nM] (“-”=not measured).

| SMILES | IC50 [1] | IC50 (HT-29 cells) | IC50 [2] |
| --- | --- | --- | --- |
| Cc1ccc2cc1CNC(=O)[C@H](CCc1ccccc1)NC(=O)CCCCC(=O)N1CCCC(CCO2)C1 (stereo partly drawn) [Compound 16, (9S)-5^4-methyl-9-phenethyl-4-oxa-7,10-diaza-1(3,1)-piperidina-5(1,3)-benzenacyclohexadecaphane-8,11,16-trione] | < 100 nM | 100 to 500 nM | < 100 nM |
| CC(=O)N[C@H]1CCCC(=O)N2CCC2(C)COc2ccc(C)c(c2)CNC(=O)[C@H](CCc2ccccc2)NC1=O (stereo partly drawn) [Compound 281, N-((8S,11S)-1^2,4^4-dimethyl-7,10,15-trioxo-8-phenethyl-3-oxa-6,9-diaza-1(2,1)-azetidina-4(1,3)-benzenacyclopentadecaphane-11-yl)acetamide] | 1000 to 5000 nM | 100 to 500 nM | 1000 to 5000 nM |
| CC(=O)N[C@H]1CCCC(=O)N2CCCC(CCOc3ccc(C)c(c3)CNC(=O)[C@H](CCc3ccccc3)NC1=O)C2 (stereo partly drawn) [Compound 213, N-((9S,12S)-5^4-methyl-8,11,16-trioxo-9-phenethyl-4-oxa-7,10-diaza-1(3,1)-piperidina-5(1,3)-benzenacyclohexadecaphane-12-yl)acetamide] | < 100 nM | < 100 nM | < 100 nM |
| Cc1ccc2cc1CNC(=O)[C@H](CCc1ccccc1)NC(=O)[C@@H](NS(=O)(=O)CCc1ccccc1)CC(=O)N1CCCC(CCO2)C1 (stereo partly drawn) [Compound 217, N-((9S,12S)-5^4-methyl-8,11,14-trioxo-9-phenethyl-4-oxa-7,10-diaza-1(3,1)-piperidina-5(1,3)-benzenacyclotetradecaphane-12-yl)-2-phenylethane-1-sulfonamide] | < 100 nM | < 100 nM | < 100 nM |
| Cc1cc2cc(c1C)CNC(=O)[C@H](Cc1c[nH]c3ccccc13)NC(=O)CCC(=O)N1CCCC(CCO2)C1 (stereo partly drawn) [Compound 120, (9S)-9-((1H-indol-3-yl)methyl)-5^4,5^5-dimethyl-4-oxa-7,10-diaza-1(3,1)-piperidina-5(1,3)-benzenacyclotetradecaphane-8,11,14-trione] | < 100 nM | 100 to 500 nM | < 100 nM |
| CC(=O)N[C@H]1CCC(=O)N2CCCC(C2)Oc2ccc(C)c(c2)CNC(=O)[C@H](CCc2ccccc2)NC1=O (stereo partly drawn) [Compound 148, N-((7S,10S)-3^4-methyl-6,9,13-trioxo-7-phenethyl-2-oxa-5,8-diaza-1(3,1)-piperidina-3(1,3)-benzenacyclotridecaphane-10-yl)acetamide] | < 100 nM | 100 to 500 nM | 1000 to 5000 nM |
| Cc1ccc2cc1CNC(=O)[C@H](CCc1ccccc1)NC(=O)[C@@H](NC(=O)C1(C)COC1)CC(=O)N1CCCC(CCO2)C1 (stereo partly drawn) [Compound 287, 3-methyl-N-((9S,12S)-5^4-methyl-8,11,14-trioxo-9-phenethyl-4-oxa-7,10-diaza-1(3,1)-piperidina-5(1,3)-benzenacyclotetradecaphane-12-yl)oxetane-3-carboxamide] | < 100 nM | < 100 nM | < 100 nM |
| Cc1ccc2cc1CNC(=O)[C@H](CCc1ccccc1)NC(=O)CCC(=O)N1CCCC(CCO2)C1 (stereo partly drawn) [Compound 13, (9S)-5^4-methyl-9-phenethyl-4-oxa-7,10-diaza-1(3,1)-piperidina-5(1,3)-benzenacyclotetradecaphane-8,11,14-trione] | < 100 nM | 500 to 1000 nM | < 100 nM |
| CC(=O)N[C@H]1CC(=O)N2CCCC(CCOc3ccc(C)c(c3)CNC(=O)C(CCc3cnccn3)NC1=O)C2 (stereo partly drawn) [Compound 564, N-((12S)-5^4-methyl-8,11,14-trioxo-9-(2-(pyrazin-2-yl)ethyl)-4-oxa-7,10-diaza-1(3,1)-piperidina-5(1,3)-benzenacyclotetradecaphane-12-yl)acetamide] | < 100 nM | < 100 nM |  |
| Cc1ccc2cc1CNC(=O)[C@H](C)NC(=O)CCC(=O)N1CCCC(CCO2)C1 (stereo partly drawn) [Compound 78, (9S)-5^4,9-dimethyl-4-oxa-7,10-diaza-1(3,1)-piperidina-5(1,3)-benzenacyclotetradecaphane-8,11,14-trione] | 100 to 500 nM |  | 1000 to 5000 nM |
